Assay results as given in US12649737B2, “Compounds and uses thereof” (Foghorn Therapeutics Inc., priority 2020, dated 2026).

Key:
[1] = target: T1, BRM (Homo sapiens, UniProt P51531); assay: ATPase catalytic activity assay of BRM (ADP-Glo); type: biochemical; conditions: 30 nM BRM, 400 μM ATP, 20 nM salmon sperm DNA, 1 hour at room temperature
T1 construct: made in house; host or cells: High Five insect cells
Method: (§1) Example 38. Assay for ATPase Catalytic Activity of BRM and BRG-1
(§2) The ADP-Glo™ kinase assay is performed in two steps once the reaction is complete.

[2] = target: T2, BRG-1 (Homo sapiens, UniProt P51532); assay: ATPase catalytic activity assay of BRG-1 (ADP-Glo); type: biochemical; conditions: 30 nM BRG-1, 400 μM ATP, 20 nM salmon sperm DNA, 1 hour at room temperature; read-out: BRG1 ATPase: IC50
T2 construct: made in house; host or cells: High Five insect cells
T2 sequence (P51532 whole entry): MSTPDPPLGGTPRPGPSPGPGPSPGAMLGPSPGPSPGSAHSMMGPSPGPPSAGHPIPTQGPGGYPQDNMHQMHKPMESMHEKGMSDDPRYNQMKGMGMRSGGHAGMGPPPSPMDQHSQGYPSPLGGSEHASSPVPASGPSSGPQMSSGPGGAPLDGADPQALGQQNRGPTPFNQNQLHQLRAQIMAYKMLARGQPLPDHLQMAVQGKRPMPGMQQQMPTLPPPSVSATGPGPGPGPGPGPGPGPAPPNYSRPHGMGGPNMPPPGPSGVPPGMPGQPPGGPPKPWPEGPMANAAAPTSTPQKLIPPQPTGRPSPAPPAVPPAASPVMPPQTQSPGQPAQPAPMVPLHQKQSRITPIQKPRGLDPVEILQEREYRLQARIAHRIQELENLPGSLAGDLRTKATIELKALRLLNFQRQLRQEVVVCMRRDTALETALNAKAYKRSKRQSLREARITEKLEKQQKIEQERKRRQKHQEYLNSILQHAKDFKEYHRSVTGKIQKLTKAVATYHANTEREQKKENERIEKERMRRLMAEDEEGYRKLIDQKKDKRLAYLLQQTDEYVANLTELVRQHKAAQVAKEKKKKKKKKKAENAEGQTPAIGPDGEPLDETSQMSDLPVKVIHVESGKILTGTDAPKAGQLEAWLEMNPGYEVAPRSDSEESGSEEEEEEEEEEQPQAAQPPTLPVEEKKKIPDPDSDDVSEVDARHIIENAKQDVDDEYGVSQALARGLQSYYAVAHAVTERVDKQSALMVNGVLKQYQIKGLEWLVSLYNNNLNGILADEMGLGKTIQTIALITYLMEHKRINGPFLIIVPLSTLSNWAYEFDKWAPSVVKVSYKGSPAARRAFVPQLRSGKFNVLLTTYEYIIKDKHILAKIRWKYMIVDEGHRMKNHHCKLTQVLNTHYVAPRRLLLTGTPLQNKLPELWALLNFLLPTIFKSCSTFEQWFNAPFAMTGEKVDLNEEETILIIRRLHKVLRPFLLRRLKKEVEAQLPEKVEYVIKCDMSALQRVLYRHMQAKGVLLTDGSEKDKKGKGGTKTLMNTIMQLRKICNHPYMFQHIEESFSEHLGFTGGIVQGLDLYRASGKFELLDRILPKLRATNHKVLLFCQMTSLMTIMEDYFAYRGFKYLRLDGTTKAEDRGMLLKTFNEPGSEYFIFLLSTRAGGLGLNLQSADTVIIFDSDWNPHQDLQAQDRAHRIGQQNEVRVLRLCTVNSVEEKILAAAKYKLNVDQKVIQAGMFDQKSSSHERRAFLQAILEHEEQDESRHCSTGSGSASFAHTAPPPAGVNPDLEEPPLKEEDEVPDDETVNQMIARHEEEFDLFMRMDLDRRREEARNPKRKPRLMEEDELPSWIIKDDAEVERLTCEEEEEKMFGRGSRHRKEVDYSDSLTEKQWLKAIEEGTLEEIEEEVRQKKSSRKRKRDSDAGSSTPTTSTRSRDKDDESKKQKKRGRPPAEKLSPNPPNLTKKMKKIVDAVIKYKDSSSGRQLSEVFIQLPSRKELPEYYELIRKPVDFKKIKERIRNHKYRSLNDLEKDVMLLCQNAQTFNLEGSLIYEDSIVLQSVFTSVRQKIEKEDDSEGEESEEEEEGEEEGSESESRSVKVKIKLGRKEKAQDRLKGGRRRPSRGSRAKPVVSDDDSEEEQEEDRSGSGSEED
Method: as §1, §2

T1 sequence (P51531 whole entry): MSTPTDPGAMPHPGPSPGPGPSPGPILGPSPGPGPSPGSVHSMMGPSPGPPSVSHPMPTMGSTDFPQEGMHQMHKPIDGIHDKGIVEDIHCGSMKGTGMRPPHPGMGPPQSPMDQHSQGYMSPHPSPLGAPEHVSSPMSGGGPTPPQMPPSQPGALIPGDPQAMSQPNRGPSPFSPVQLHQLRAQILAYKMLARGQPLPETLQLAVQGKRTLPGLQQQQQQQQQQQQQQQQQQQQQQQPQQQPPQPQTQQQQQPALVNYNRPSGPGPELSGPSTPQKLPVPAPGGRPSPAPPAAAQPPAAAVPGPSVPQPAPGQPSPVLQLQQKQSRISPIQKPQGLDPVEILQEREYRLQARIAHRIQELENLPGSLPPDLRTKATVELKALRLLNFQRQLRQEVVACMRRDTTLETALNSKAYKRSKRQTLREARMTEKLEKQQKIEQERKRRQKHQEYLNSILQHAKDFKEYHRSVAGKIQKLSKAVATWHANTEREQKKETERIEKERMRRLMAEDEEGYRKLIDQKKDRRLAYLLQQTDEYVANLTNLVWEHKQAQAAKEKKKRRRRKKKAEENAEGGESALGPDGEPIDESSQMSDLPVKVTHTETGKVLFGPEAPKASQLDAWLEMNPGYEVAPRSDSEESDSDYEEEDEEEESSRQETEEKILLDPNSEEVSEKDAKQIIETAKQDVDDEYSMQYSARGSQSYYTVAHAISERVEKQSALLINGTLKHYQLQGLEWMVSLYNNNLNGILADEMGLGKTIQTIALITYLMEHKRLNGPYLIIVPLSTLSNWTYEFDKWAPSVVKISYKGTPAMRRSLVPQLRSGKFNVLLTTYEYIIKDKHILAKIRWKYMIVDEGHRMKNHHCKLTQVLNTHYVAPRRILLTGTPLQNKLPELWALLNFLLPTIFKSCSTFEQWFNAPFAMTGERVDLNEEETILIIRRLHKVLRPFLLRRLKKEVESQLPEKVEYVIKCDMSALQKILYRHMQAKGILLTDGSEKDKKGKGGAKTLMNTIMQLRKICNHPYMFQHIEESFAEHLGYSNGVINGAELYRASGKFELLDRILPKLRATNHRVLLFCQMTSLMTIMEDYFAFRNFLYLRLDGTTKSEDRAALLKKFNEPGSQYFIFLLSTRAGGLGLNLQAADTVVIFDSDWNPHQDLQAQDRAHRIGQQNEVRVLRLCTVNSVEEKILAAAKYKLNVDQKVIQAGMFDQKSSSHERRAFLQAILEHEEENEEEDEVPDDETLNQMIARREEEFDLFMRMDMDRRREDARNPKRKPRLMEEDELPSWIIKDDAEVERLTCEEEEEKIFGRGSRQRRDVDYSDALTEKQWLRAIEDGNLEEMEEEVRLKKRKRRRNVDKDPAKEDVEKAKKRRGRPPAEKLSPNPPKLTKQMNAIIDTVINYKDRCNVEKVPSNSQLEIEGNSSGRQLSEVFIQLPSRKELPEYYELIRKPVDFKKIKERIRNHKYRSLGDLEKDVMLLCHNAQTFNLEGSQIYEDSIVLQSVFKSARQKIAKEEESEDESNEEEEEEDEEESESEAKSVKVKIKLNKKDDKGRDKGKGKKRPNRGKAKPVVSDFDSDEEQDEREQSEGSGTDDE

Row | Structure (SMILES) | IC50 [1] [nM] | IC50 [2] [nM]
1 | CC(C)(C)n1ccc(C(=O)NCc2nc3ccc(-c4ccc(-n5cccn5)cc4)cc3[nH]2)c1 [Compound 54] | 100 to 1000 | 100 to 1000
2 | CC(C)(C)n1ccc(C(=O)NCc2nc3ccc(-c4ccc(N5CCOCC5)nc4)cc3[nH]2)c1 [Compound 55] | 100 to 1000 | 100 to 1000
3 | CN(C)c1ncc(-c2ccc3nc(CNC(=O)c4ccn(C(C)(C)C)c4)[nH]c3c2)cn1 [Compound 56] | 10 to 100 | 10 to 100
4 | Cc1ccc2cc(-c3ccc4nc(CNC(=O)c5ccn(C(C)(C)C)c5)[nH]c4c3)ccc2n1 [Compound 57] | 10 to 100 | 10 to 100
5 | CC(C)(C)n1ccc(C(=O)NCc2nc3ccc(-c4ccc5c(c4)OCO5)cc3[nH]2)c1 [Compound 58] | 10 to 100 | 100 to 1000
6 | COCCOc1ccc(-c2ccc3nc(CNC(=O)c4ccn(C(C)(C)C)c4)[nH]c3c2)cc1 [Compound 59] | 100 to 1000 | 100 to 1000
7 | COc1ncc(-c2ccc3nc(CNC(=O)c4ccn(C(C)(C)C)c4)[nH]c3c2)cc1Cl [Compound 60] | 10 to 100 | 100 to 1000
8 | CS(=O)(=O)n1ccc(C(=O)NCc2cc3nc(-c4ccccc4)ccc3cn2)c1 [Compound 61, 1-(methylsulfonyl)-N-((2-phenyl-1,6-naphthyridin-7-yl)methyl)-1H-pyrrole-3-carboxamide] | 100 to 1000 | 100 to 1000
9 | COc1cccc(-c2ccc3cnc(CNC(=O)c4ccn(S(C)(=O)=O)c4)cc3n2)c1 [Compound 62] | 100 to 1000 | 100 to 1000
10 | CS(=O)(=O)n1ccc(C(=O)NCc2cc3nc(-c4ccc(N5CCC5)cc4)ccc3cn2)c1 [Compound 63] | 100 to 1000 | 100 to 1000
11 | CS(=O)(=O)n1ccc(C(=O)NCc2cc3nc(-c4cccc(N5CCC5)c4)ccc3cn2)c1 [Compound 64, N-[[2-[3-(azetidin-1-yl)phenyl]-1,6-naphthyridin-7-yl]methyl]-1-methylsulfonyl-pyrrole-3-carboxamide] | 10 to 100 | 100 to 1000
12 | CS(=O)(=O)n1ccc(C(=O)NCc2cc3nc(-c4cccc(C(F)F)c4)ccc3cn2)c1 [Compound 65] | 100 to 1000 | 100 to 1000
13 | CS(=O)(=O)n1ccc(C(=O)NCc2cc3nc(-c4cccc(C#N)c4)ccc3cn2)c1 [Compound 66, N-((2-(3-cyanophenyl)-1,6-naphthyridin-7-yl)methyl)-1-(methylsulfonyl)-1H-pyrrole-3-carboxamide] | > 1000 | > 1000
14 | CS(=O)(=O)n1ccc(C(=O)NCc2cc3nc(-c4ccc5c(c4)CCO5)ccc3cn2)c1 [Compound 67] | 100 to 1000 | 100 to 1000
15 | CS(=O)(=O)n1ccc(C(=O)NCc2cc3nc(-c4ccc5c(c4)OCC5)ccc3cn2)c1 [Compound 68] | 100 to 1000 | 100 to 1000
16 | CN1CCOc2ccc(-c3ccc4cnc(CNC(=O)c5ccn(S(C)(=O)=O)c5)cc4n3)cc21 [Compound 69] | 10 to 100 | 100 to 1000
17 | CS(=O)(=O)n1ccc(C(=O)NCc2cc3nc(-c4cccc(OC5CC5)c4)ccc3cn2)c1 [Compound 70] | 100 to 1000 | 100 to 1000
18 | Cn1cc(-c2cccc(-c3ccc4cnc(CNC(=O)c5ccn(S(C)(=O)=O)c5)cc4n3)c2)cn1 [Compound 71] | 10 to 100 | 100 to 1000
19 | CN1CCc2cc(-c3ccc4cnc(CNC(=O)c5ccn(S(C)(=O)=O)c5)cc4n3)ccc21 [Compound 72] | 100 to 1000 | 100 to 1000
20 | CS(=O)(=O)n1ccc(C(=O)NCc2cc3nc(-c4ccccc4)sc3cn2)c1 [Compound 73, 1-methylsulfonyl-N-[(2-phenylthiazolo[5,4-c]pyridin-6-yl)methyl]pyrrole-3-carboxamide] | 100 to 1000 | 100 to 1000
21 | COc1ccccc1-c1ccc2cnc(CNC(=O)c3ccn(S(C)(=O)=O)c3)cc2n1 [Compound 75] | 10 to 100 | 100 to 1000
22 | C[C@@H]1CN(c2cccc(-c3ccc4cnc(CNC(=O)c5ccn(S(C)(=O)=O)c5)cc4n3)n2)C[C@H](C)O1 [Compound 76, N-((2-(6-(cis-2,6-dimethylmorpholino)pyridin-2-yl)-1,6-naphthyridin-7-yl)methyl)-1-(methylsulfonyl)-1H-pyrrole-3-carboxamide] | < 10 | 10 to 100
23 | C[C@@H]1CN(c2cccc(-c3ccc4cnc(CNC(=O)c5ccn(C(C)(C)C)c5)cc4n3)n2)C[C@H](C)O1 [Compound 77] | 10 to 100 | 10 to 100
24 | C[C@@H]1CN(c2cccc(-c3ccc4cnc(CNC(=O)c5ccn(C(C)(C)C)n5)cc4n3)n2)C[C@H](C)O1 [Compound 78] | 10 to 100 | 100 to 1000
25 | C[C@@H]1CN(c2cccc(-c3ccc4cnc(CNC(=O)c5ccn(C(C)(C)C#N)n5)cc4n3)n2)C[C@H](C)O1 [Compound 79] | 10 to 100 | 10 to 100
26 | CS(=O)(=O)n1ccc(C(=O)NCc2cc3nc(-c4cncc(C5CC5)n4)ccc3cn2)c1 [Compound 80, N-[[2-(6-cyclopropylpyrazin-2-yl)-1,6-naphthyridin-7-yl]methyl]-1-methylsulfonyl-pyrrole-3-carboxamide] | 10 to 100 | 100 to 1000
27 | COC[C@H](NC(=O)c1ccn(S(C)(=O)=O)c1)c1cc2nc(-c3cccc(N4C[C@@H](C)O[C@@H](C)C4)n3)ccc2cn1 [Compound 82] | 10 to 100 | 100 to 1000
